Measurements as given in patent US20180280377A1, “Imidazo[4,5-c]quinolin-2-one Compounds and Their Use in Treating Cancer” (ASTRAZENECA AB, priority 2015, published 2018).

What was measured:
PI3Kα = PI3Kα (Homo sapiens, UniProt P42336); experiment: PI3K cellular potency assay (phospho-Akt T308 in BT474 cells, ELISA); assay type: cell-based; conditions: 2 h, phospho-Akt (T308); Table 2; read-out: Assay c) PI3Kα Cell IC50
Description: The following assays were used to measure the effects of the compounds of the present invention: a) ATM cellular potency assay; b) PI3K cellular potency assay; c) mTOR cellular potency assay; d) ATR cellular potency assay. During the description of the assays, generally: • i. […] IC50 values were calculated using a smart fitting model in Genedata.
This assay was used to measure PI3K-α inhibition in cells. PDK1 was identified as the upstream activation loop kinase of protein kinase B (Akt1), which is essential for the activation of PKB. Activation of the lipid kinase phosphoinositide 3 kinase (PI3K) is critical for the activation of PKB by PDK1.
Following ligand stimulation of receptor tyrosine kinases, PI3K is activated, which converts PIP2 to PIP3, which is bound by the PH domain of PDK1 resulting in recruitment of PDK1 to the plasma membrane where it phosphorylates AKT at Thr308 in the activation loop.
The aim of this cell-based mode of action assay is to identify compounds that inhibit PDK activity or recruitment of PDK1 to membrane by inhibiting PI3K activity. Phosphorylation of phospho-Akt (T308) in BT474c cells following treatment with compounds for 2 h is a direct measure of PDK1 and indirect measure of PI3K activity.
The following morning compounds in 100% DMSO were added to assay plates by acoustic dispensing.
Plates were incubated over night at 4° C. The next day the plates were washed with PBS buffer containing 0.05% Tween 20 and further incubated with a mouse monoclonal anti-phospho AKT T308 for 2 h. Plates were washed again as above before addition of a horse anti-mouse-HRP conjugated secondary antibody. […] The developed fluorescent product was stopped after 60 minutes by addition of Stop solution to the wells.

ATR = target: T1, ATR (Homo sapiens, UniProt Q13535); experiment: ATR cellular potency assay (pChk1 Ser345 in HT29 cells after 4NQO); assay type: cell-based; conditions: pChk1 (Ser 345); Table 2; read-out: Assay b) ATR Cell IC50
T1 construct: endogenous in cells; host or cells: HT29 cells (ECACC #85061109)

PI3Kα, sequence (P42336 whole entry): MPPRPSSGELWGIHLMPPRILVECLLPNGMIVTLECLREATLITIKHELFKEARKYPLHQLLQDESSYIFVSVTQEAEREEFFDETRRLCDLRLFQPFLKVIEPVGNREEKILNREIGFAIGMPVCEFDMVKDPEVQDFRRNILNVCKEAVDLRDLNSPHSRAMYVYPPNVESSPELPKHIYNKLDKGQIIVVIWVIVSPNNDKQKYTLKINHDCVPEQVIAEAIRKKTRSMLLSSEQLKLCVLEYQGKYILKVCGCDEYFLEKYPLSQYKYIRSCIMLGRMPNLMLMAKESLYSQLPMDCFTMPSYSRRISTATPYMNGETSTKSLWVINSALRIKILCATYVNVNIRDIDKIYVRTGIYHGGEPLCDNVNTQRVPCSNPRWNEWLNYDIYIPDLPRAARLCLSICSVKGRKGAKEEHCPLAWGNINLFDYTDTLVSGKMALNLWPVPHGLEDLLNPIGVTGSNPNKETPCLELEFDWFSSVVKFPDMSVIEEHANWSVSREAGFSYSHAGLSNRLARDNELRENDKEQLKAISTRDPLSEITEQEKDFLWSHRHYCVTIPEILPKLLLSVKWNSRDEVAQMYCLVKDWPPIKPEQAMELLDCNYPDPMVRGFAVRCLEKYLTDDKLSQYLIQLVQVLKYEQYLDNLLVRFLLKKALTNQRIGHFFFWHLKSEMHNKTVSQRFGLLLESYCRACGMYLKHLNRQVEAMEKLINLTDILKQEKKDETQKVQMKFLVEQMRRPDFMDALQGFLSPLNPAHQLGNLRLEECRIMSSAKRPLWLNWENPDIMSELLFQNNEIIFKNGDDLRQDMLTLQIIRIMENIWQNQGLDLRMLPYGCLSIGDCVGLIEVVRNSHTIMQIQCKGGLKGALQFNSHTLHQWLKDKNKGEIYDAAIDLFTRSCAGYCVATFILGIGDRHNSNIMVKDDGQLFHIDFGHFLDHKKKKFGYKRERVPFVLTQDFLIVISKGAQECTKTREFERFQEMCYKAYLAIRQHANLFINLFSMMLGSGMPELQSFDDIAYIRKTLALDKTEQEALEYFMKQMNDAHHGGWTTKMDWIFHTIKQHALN
PI3Kα, sequence (P27986 2-724, further chain): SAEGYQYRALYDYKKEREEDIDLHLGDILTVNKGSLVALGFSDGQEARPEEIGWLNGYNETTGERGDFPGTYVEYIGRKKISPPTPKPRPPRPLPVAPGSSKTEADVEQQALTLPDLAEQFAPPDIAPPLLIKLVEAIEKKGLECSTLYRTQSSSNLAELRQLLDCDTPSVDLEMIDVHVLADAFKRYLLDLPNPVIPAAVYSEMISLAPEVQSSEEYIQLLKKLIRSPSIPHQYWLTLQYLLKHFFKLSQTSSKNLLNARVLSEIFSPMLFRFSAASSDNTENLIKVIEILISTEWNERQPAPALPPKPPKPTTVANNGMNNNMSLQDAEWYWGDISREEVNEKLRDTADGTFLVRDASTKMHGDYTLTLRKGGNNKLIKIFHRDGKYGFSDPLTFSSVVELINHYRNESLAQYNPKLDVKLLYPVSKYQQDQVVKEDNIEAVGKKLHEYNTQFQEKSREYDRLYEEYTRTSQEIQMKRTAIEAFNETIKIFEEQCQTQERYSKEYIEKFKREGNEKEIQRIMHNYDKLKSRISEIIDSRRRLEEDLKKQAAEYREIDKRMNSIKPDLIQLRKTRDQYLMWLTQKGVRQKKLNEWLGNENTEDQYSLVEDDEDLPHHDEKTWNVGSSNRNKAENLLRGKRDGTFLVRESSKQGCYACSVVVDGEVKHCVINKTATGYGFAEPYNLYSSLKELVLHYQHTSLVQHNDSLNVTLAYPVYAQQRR

IC50 (PI3Kα)	IC50 (ATR)	Structure (SMILES)
0.663 µM	> 30 µM	CO[C@H]1CC[C@H](n2c(=O)n(C)c3cnc4ccc(-c5ccc(N6CCC(N(C)C)CC6)nc5)cc4c32)C1 (single isomer, unassigned) [Example 32, 8-[6-[4-(dimethylamino)-1-piperidyl]-3-pyridyl]-1-[trans-3-methoxycyclopentyl]-3-methyl-imidazo[4,5-c]quinolin-2-one]
1.22 µM	1.42 µM	CN(C)[C@@H]1CCN(c2ccc(-c3ccc4ncc5c(c4c3)n([C@@H]3CCCOC3)c(=O)n5C)cn2)C1 [Example 7]
> 10 µM	> 30 µM	CN(C)[C@H]1CCN(c2ccc(-c3cc4c(cc3F)ncc3c4n([C@H]4CCCOC4)c(=O)n3C)cn2)C1 [Example 20]
> 30 µM	> 30 µM	CO[C@H]1C[C@@H](n2c(=O)n(C)c3cnc4cc(F)c(-c5ccc(N6CC(N(C)C)C6)nc5)cc4c32)C1 [Example 31, 8-[6-[3-(dimethylamino)azetidin-1-yl]-3-pyridyl]-7-fluoro-1-(cis-3-methoxycyclobutyl)-3-methyl-imidazo[4,5-c]quinolin-2-one]
0.987 µM	> 30 µM	CO[C@H]1C[C@@H](n2c(=O)n(C)c3cnc4ccc(-c5ccc(N6CCC(N(C)C)CC6)nc5)cc4c32)C1 [Example 36, 8-[6-[4-(dimethylamino)-1-piperidyl]-3-pyridyl]-1-(cis-3-methoxycyclobutyl)-3-methyl-imidazo[4,5-c]quinolin-2-one]
> 30 µM	> 30 µM	CO[C@H]1C[C@@H](n2c(=O)n(C)c3cnc4cc(F)c(-c5ccc(N6CCC(N(C)C)CC6)nc5)cc4c32)C1 [Example 42, 8-[6-[4-(dimethylamino)-1-piperidyl]-3-pyridyl]-7-fluoro-1-(cis-3-methoxycyclobutyl)-3-methyl-imidazo[4,5-c]quinolin-2-one]
> 30 µM	> 30 µM	CNC1CCN(c2ccc(-c3cc4c(cc3F)ncc3c4n([C@H]4C[C@@H](OC)C4)c(=O)n3C)cn2)CC1 [Example 57, 7-Fluoro-1-(cis-3-methoxycyclobutyl)-3-methyl-8-[6-[4-(methylamino)-1-piperidyl]-3-pyridyl]imidazo[4,5-c]quinolin-2-one]
0.292 µM	> 30 µM	CNC1CCN(c2ccc(-c3ccc4ncc5c(c4c3)n([C@H]3C[C@@H](OC)C3)c(=O)n5C)cn2)CC1 [Example 60, 1-(cis-3-methoxycyclobutyl)-3-methyl-8-[6-[4-(methylamino)-1-piperidyl]-3-pyridyl]imidazo[4,5-c]quinolin-2-one]
